Reference: patent US20210171598A1, “PEPTIDE HORMONE WITH ONE OR MORE O-GLYCANS” (priority 2017, published 2021)

Experiments:
[1] = target: T1, insulin-degrading enzyme (IDE) (Homo sapiens, UniProt P14735); test: In vitro degradation by insulin-degrading enzyme, MALDI-TOF time course; type: in vitro ADME
T1 construct: purchased R&D Systems
T1 sequence (P14735 1-1019): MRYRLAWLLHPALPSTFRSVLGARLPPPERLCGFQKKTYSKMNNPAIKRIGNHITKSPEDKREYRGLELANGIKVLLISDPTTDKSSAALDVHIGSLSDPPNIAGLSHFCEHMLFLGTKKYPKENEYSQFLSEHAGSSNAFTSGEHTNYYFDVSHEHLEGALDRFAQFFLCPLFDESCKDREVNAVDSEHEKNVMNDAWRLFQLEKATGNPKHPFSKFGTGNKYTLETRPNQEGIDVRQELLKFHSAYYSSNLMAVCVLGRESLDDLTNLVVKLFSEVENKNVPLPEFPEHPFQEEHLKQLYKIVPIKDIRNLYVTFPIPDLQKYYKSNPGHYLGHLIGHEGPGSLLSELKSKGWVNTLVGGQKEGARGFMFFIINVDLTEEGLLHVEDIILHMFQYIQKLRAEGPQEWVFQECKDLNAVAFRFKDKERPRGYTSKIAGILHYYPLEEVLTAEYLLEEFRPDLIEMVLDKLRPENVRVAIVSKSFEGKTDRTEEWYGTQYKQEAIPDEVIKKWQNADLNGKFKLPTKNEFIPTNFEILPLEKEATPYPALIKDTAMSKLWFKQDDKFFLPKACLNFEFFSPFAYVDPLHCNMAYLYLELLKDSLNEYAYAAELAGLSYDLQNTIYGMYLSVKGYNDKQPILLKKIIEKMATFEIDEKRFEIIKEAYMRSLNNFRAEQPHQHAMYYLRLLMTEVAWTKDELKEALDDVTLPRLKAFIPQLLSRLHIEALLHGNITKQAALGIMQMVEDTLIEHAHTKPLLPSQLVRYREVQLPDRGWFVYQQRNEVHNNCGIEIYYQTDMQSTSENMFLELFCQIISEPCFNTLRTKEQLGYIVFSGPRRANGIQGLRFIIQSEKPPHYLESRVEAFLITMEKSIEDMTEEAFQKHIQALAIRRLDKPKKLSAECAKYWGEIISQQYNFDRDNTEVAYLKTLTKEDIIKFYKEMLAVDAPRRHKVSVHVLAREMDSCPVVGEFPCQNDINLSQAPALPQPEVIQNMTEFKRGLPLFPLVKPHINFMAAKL
Protocol: Reactions were performed in 50 mM Tris, 0.05% Brij-35, pH 9 (Neprilysin), or 50 mM Tris, 20 mM NaCl, pH 7.5 (IDE) and incubated at 37° C.

male Sprague Dawley rats = test: Acute cardiovascular and renal actions of i.v. infusion in anesthetized rats; type: in vivo; conditions: rat
Text: The protocol is outlined in FIG. 9A.
Rats were then subjected to vessel and bladder cannulation for peptide infusion, BP measurement, blood sampling and urine collection. A polyethylene (PE)-5G tube catheter was placed into the jugular vein for inulin, peptide intravenous infusion. The carotid artery was cannulated with a PE-50 tube catheter for BP measurement (Sonometrics, London, Ontario, Canada) and blood sampling. The bladder was accessed and cannulated with a PE-50 tube catheter for passive urine collection. After completion of the above procedural set up, a 45 min equilibration period was performed that included continuous IV inulin and saline infusion. After the 45 min equilibration period, baseline (Time==Q min) parameters were recorded and one blood sampling (0.7 ml) was performed. The inulin and saline infusion was replaced by a continuous intravenously (i.v.) infusion of equimolar ANP-Ser19/ST or ANP-Ser25/ST for 60 min. The infusion rate was weight adjusted and equals weight*0.7/6000 ml/min. After 60 min infusion (Time=60 min), another blood sampling (0.7 ml) was conducted. […] Urine was collected at the end of the infusion (Time=60 min) and the study (Time=90 min). Urinary sodium was measured with pHOx Ultra (Nova Biomedical, Waltham, Mass.). Urine flow (UV) and urinary sodium excretion (UNaV) were calculated as urine volume or sodium clearance per min, Inulin concentrations were measured with enthrone method and inulin clearance was used for GFR quantification. Urinary cGMP and ANP excretion rate was calculated based on raw values obtained in the urine and UV.

[2] = 600 pmol/kg/min i.v., 60 minutes infusion

CC[C@H](C)[C@@H]1NC(=O)[C@H](CCCNC(=N)N)NC(=O)[C@H](CC(=O)O)NC(=O)[C@H](CCSC)NC(=O)[C@H](CCCNC(=N)N)NC(=O)CNC(=O)CNC(=O)[C@H](Cc2ccccc2)NC(=O)[C@@H](NC(=O)[C@H](CO)NC(=O)[C@H](CO)NC(=O)[C@H](CCCNC(=N)N)NC(=O)[C@H](CCCNC(=N)N)NC(=O)[C@H](CC(C)C)NC(=O)[C@@H](N)CO)CSSC[C@@H](C(=O)N[C@@H](CC(N)=O)C(=O)N[C@@H](CO)C(=O)N[C@@H](Cc2ccccc2)C(=O)N[C@@H](CCCNC(=N)N)C(=O)N[C@@H](Cc2ccc(O)cc2)C(=O)O)NC(=O)CNC(=O)[C@H](CC(C)C)NC(=O)CNC(=O)[C@H](CO)NC(=O)[C@H](CCC(N)=O)NC(=O)[C@H](C)NC(=O)CNC1=O [ANP, Atrial natriuretic factor, reference compound]
time to complete degradation by insulin-degrading enzyme [1]: ≤ 15 min | UV after a clearance period of 30 minutes (male Sprague Dawley rats): normalized | change in mean arterial pressure (MAP) over the infusion period (male Sprague Dawley rats; [2]): decrease | change in plasma cGMP over the infusion period (male Sprague Dawley rats; [2]): increase | MAP in the 30 minutes clearance period (male Sprague Dawley rats; after 60 min infusion): rebounded
